Experimental data: ChEMBL document CHEMBL1955806, “Design, synthesis, single-crystal and preliminary antitumor activity of novel arenesulfonylimidazolidin-2-ones” (2012)

Columns and labels:
Format in all cases: functional
UO-31 = test: Growth inhibition of human UO31 cells at 10 uM after 48 hrs by sulforhodamine B assay; details: UO-31, 48 h, read-out: GI
SF-295 = test: Growth inhibition of human SF295 cells at 10 uM after 48 hrs by sulforhodamine B assay; details: SF-295, 48 h, read-out: GI
HCT-116 = test: Growth inhibition of human HCT116 cells at 10 uM after 48 hrs by sulforhodamine B assay; details: HCT-116, 48 h, read-out: GI
CAKI-1 = test: Growth inhibition of human CAKI-1 cells at 10 uM after 48 hrs by sulforhodamine B assay; details: CAKI-1, 48 h, read-out: GI
HOP-92 = test: Growth inhibition of human HOP92 cells at 10 uM after 48 hrs by sulforhodamine B assay; details: HOP-92, 48 h, read-out: GI
PC-3 = test: Growth inhibition of human PC3 cells at 10 uM after 48 hrs by sulforhodamine B assay; details: PC-3, 48 h, read-out: GI
IGROV-1 = test: Growth inhibition of human IGROV1 cells at 10 uM after 48 hrs by sulforhodamine B assay; details: IGROV-1, 48 h, read-out: GI
MOLT-4 = test: Growth inhibition of human MOLT4 cells at 10 uM after 48 hrs by sulforhodamine B assay; details: MOLT-4, 48 h, read-out: GI
UACC-62 = test: Growth inhibition of human UACC62 cells at 10 uM after 48 hrs by sulforhodamine B assay; details: UACC-62, 48 h, read-out: GI

Row | SMILES | inhibition of growth at 10 µM (UO-31) [%] | inhibition of growth at 10 µM (SF-295) [%] | inhibition of growth at 10 µM (HCT-116) [%] | inhibition of growth at 10 µM (CAKI-1) [%] | inhibition of growth at 10 µM (HOP-92) [%] | inhibition of growth at 10 µM (PC-3) [%] | inhibition of growth at 10 µM (IGROV-1) [%] | inhibition of growth at 10 µM (MOLT-4) [%] | inhibition of growth at 10 µM (UACC-62) [%]
1 | CO[C@H]1NC(=O)N(S(=O)(=O)c2ccc(Cl)cc2)[C@@H]1OC (relative stereo) | 22 | 7.91 | -10.3 | 7.49 | -13.6 | 2.67 | -23.9 | – | –
2 | COc1ccc(S(=O)(=O)N2C(=O)N[C@H](OC)[C@H]2OC)cc1 (relative stereo) | – | 8.51 | -23.4 | 7.51 | – | -2.45 | -20.7 | -5.62 | –
3 | CO[C@H]1NC(=O)N(S(=O)(=O)c2ccc3ccccc3c2)[C@@H]1OC (relative stereo) | 13.7 | 4.43 | -4.18 | -7.3 | – | 2.1 | -25.5 | – | 1.65
4 | COc1ccc(S(=O)(=O)N2C(=O)N[C@H](OC)[C@H]2OC)c(OC)c1 (relative stereo) | 6.25 | 2.06 | – | 21.2 | – | 4.15 | -13.9 | – | 8.26
5 | CO[C@@H]1[C@@H](OC)N(S(=O)(=O)c2ccccc2)C(=O)N1S(=O)(=O)c1ccccc1 (relative stereo) | 15 | -12.3 | -2.02 | 10.4 | 29.9 | 5.78 | 3.06 | 13.3 | -6.88
6 | CO[C@@H]1[C@@H](OC)N(S(=O)(=O)c2ccc(Cl)cc2Cl)C(=O)N1S(=O)(=O)c1ccc(Cl)cc1Cl (relative stereo) | 15.3 | 16 | 11.9 | 25 | 60.2 | 22.5 | 4.16 | 14.2 | 4.25
7 | COc1ccc(S(=O)(=O)N2C(=O)N(S(=O)(=O)c3ccc(OC)cc3OC)[C@H](OC)[C@H]2OC)c(OC)c1 (relative stereo) | 23.3 | 4.19 | -2.15 | 17.1 | – | 15.9 | 3.77 | 14.2 | 16
8 | COc1ccc(S(=O)(=O)N2C(=O)N(S(=O)(=O)c3ccc(OC)cc3)[C@H](OC)[C@H]2OC)cc1 (relative stereo) | 35.1 | 6.43 | 8.94 | 36.8 | 61 | 22.2 | 6.17 | 15.6 | 20.3
9 | CO[C@H]1NC(=O)N(S(=O)(=O)c2c(C)cc(C)cc2C)[C@@H]1OC (relative stereo) | 14.7 | – | – | 15.7 | 21.3 | 4.26 | -7.61 | – | 6.82
